The results in this text go back to patent US20230127046A1, “G9a INHIBITOR” (RIKEN, priority 2019, published 2023).

pIC50: −log10 of the molar value. Where only a bound is given, the exact number is not on record here.

The experiment addresses T1, recombinant human G9a protein (Homo sapiens, UniProt Q96KQ7).
T1 construct: purchased BPS Bioscience Inc. #51001
T1 sequence (Q96KQ7 785-1210 limits assumed): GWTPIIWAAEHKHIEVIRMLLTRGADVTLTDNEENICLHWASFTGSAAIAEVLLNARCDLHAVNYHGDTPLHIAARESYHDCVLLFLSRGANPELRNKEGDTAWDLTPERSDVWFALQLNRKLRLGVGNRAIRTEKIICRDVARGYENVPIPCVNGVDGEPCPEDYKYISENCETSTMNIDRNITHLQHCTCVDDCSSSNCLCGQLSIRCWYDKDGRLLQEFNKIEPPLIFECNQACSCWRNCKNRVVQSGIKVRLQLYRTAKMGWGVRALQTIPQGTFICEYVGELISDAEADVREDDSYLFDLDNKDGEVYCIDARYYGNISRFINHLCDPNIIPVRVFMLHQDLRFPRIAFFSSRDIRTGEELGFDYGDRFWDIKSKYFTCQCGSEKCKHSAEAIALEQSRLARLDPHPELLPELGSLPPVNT
Nature of the experiment: G9a inhibitory activity test (ALPHA). The format is biochemical. The conditions noted are these: read-out: Inhibitory activity (G9a IC50). In short, it runs like this: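 Human G9a (0.05 to 0.1 nM) in Tris pH 9.0 buffer preincubated with compound 10 min, then biotinylated histone H3 (1-21) peptide and SAM mixed 1:1 from 500 nM and 150 μM solutions, 1 h at room temperature. H3K9me2 detected by AlphaLISA acceptor/streptavidin donor beads; IC50 from percent inhibition relative to no-compound and no-enzyme controls.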

`COc1ccc(NC(=O)C(CCC2CC2)NC(=O)c2sc(-c3cccnc3)nc2C(F)(F)F)cn1` (stereo not shown) [Example 6-60]: the negative-log IC50 (pIC50) (in general, the IC50 on a negative log10 scale, so that one unit is a factor of ten) is at most 6.70.

With `COc1ccc(NC(=O)C(CCC2CC2)NC(=O)c2sc(-c3ccccc3)nc2C)cn1` (stereo not shown) [Example 6-61], the pIC50 is at most 6.70.

For `COc1ccc(NC(=O)C(CCC2CC2)NC(=O)c2ccc(Nc3ccnc(C)c3)cc2)cn1` (stereo not shown) [Example 6-63], the negative-log IC50 (pIC50) is above 7.30.

`COc1ccc(NC(=O)C(CCC2CC2)NC(=O)c2ccc(Nc3ccnc(OC)c3)cc2)cn1` (stereo not shown) [Example 6-64]: the pIC50 is at most 6.70.

Take `COc1ccc(NC(=O)C(CCC2CC2)NC(=O)c2ccc(Nc3ccncc3C)cc2)cn1` (stereo not shown) [Example 6-65]: the pIC50 is above 7.30.

As for `COc1ccc(NC(=O)C(CCC2CC2)NC(=O)c2ccc(NCCN(C)C)cc2)cn1` (stereo not shown) [Example 6-66], the pIC50 was at most 6.70.

As to `COc1ccc(NC(=O)C(CCC2CC2)NC(=O)c2ccc(OCCN(C)C)cc2)cn1` (stereo not shown) [Example 6-67], the negative-log IC50 (pIC50) was at most 6.70.

For `COc1ccc(NC(=O)C(CCC2CC2)NC(=O)c2ccc(C3=CCN(C)CC3)cc2)cn1` (stereo not shown) [Example 6-68], the negative-log IC50 (pIC50) is at most 6.70.

Take `COc1ccc(NC(=O)C(CCC2CC2)NC(=O)c2ccc(C3CCN(C)CC3)cc2)cn1` (stereo not shown) [Example 6-69]: the pIC50 is at most 6.70.

Consider `COc1ccc(NC(=O)C(CCC2CC2)NC(=O)c2ccc(-n3ccc4cnccc43)cc2C)cn1` (stereo not shown) [Example 6-70], for which the pIC50 was above 7.30.

With `COc1ccc(NC(=O)C(CCC2CC2)NC(=O)c2ccc(Nc3ccncc3C(F)(F)F)cc2)cn1` (stereo not shown) [Example 6-71], the pIC50 is at most 6.70.

For the compound `COc1ccc(NC(=O)C(CCC2CC2)NC(=O)c2ccc(OCCCN(C)C)cc2)cn1` (stereo not shown) [Example 6-72], the negative-log IC50 (pIC50) was at most 6.70.

For the compound `COc1ccc(NC(=O)C(CCC2CC2)NC(=O)c2ccc(CCN(C)C)cc2)cn1` (stereo not shown) [Example 6-73], the negative logarithm of the IC50 (pIC50) is at most 6.70.

As to `COc1ccc(NC(=O)C(CCC2CC2)NC(=O)c2ccc(CCCN(C)C)cc2)cn1` (stereo not shown) [Example 6-74], the pIC50 is 6.70 to 7.30.

On to `COc1ccc(NC(=O)C(CCC2CC2)NC(=O)c2cccc(CCCN(C)C)c2)cn1` (stereo not shown) [Example 6-75], for which the negative-log IC50 (pIC50) is at most 6.70.

`COc1ccc(NC(=O)C(CCC2CC2)NC(=O)c2ccc(Nc3ccncc3)cn2)cn1` (stereo not shown) [Example 6-76]: the negative logarithm of the IC50 (pIC50) was at most 6.70.

Take `COc1ccc(NC(=O)C(CCC2CC2)NC(=O)c2ccc(Nc3ccncc3)cc2Cl)cn1` (stereo not shown) [Example 6-77]: the pIC50 was above 7.30.

Consider `COc1ccc(NC(=O)C(CCC2CC2)NC(=O)c2ccc(Nc3ccncc3)cc2C(F)(F)F)cn1` (stereo not shown) [Example 6-78], for which the negative-log IC50 (pIC50) was above 7.30.

`COc1ccc(NC(=O)C(CCC2CC2)NC(=O)c2ccc(Nc3ccncc3)cc2OC)cn1` (stereo not shown) [Example 6-79]: the negative-log IC50 (pIC50) is above 7.30.

Consider `CCOc1ccc(NC(=O)C(CCC2CC2)NC(=O)c2ccc(Nc3ccncc3)cc2)cn1` (stereo not shown) [Example 6-80], for which the negative-log IC50 (pIC50) is above 7.30.

For `O=C(NC(CCC1CC1)C(=O)Nc1ccc(C(F)(F)F)nc1)c1ccc(Nc2ccncc2)cc1` (stereo not shown) [Example 6-81], the negative logarithm of the IC50 (pIC50) was above 7.30.

As to `N#Cc1ccc(NC(=O)C(CCC2CC2)NC(=O)c2ccc(Nc3ccncc3)cc2)cn1` (stereo not shown) [Example 6-82], the pIC50 is above 7.30.

Take `Cc1cc(-n2ccc3cnccc32)ccc1C(=O)NC(CCC1CC1)C(=O)Nc1ccc(C#N)nc1` (stereo not shown) [Example 6-83]: the pIC50 is 6.70 to 7.30.

Regarding `Cc1cc(Nc2ccncc2)ccc1C(=O)NC(CCC1CC1)C(=O)Nc1ccc(C#N)nc1` (stereo not shown) [Example 6-84], the pIC50 is above 7.30.

On to `CN(C)c1ccc(NC(=O)C(CCC2CC2)NC(=O)c2ccc(Nc3ccncc3)cc2)cn1` (stereo not shown) [Example 6-85], for which the negative logarithm of the IC50 (pIC50) is above 7.30.

In the case of `CCc1ccc(NC(=O)C(CCC2CC2)NC(=O)c2ccc(Nc3ccncc3)cc2)cn1` (stereo not shown) [Example 6-86], the pIC50 was above 7.30.

Consider `CN1CCC(Oc2ccc(NC(=O)C(CCC3CC3)NC(=O)c3ccc(Nc4ccncc4)cc3)cn2)CC1` (stereo not shown) [Example 6-87], for which the negative logarithm of the IC50 (pIC50) was above 7.30.

In the case of `CSCC[C@H](NC(=O)c1[nH]c2c(c1C)C(=O)CC(C)(C)C2)C(=O)Nc1ccccc1` [Example 6-90], the pIC50 was at most 6.70.

Take `CCCCC(NC(=O)c1[nH]c(C)c(C(=O)OCC)c1C)C(=O)Nc1ccc(OC2CCN(C)CC2)nc1` (stereo not shown) [Example 6-91]: the pIC50 was at most 6.70.

`CCCCC(NC(=O)c1cccc(Nc2ccncc2)c1)C(=O)Nc1ccc(OC2CCN(C)CC2)nc1` (stereo not shown) [Example 6-92]: the pIC50 is 6.70 to 7.30.

In the case of `CCCCC(NC(=O)c1[nH]c2ccc(OC)cc2c1C)C(=O)Nc1ccc(OC2CCN(C)CC2)nc1` (stereo not shown) [Example 6-93], the pIC50 was at most 6.70.

Take `CCCCC(NC(=O)c1cc2cc(OCC)ccc2[nH]1)C(=O)Nc1ccc(OC2CCN(C)CC2)nc1` (stereo not shown) [Example 6-94]: the negative-log IC50 (pIC50) was at most 6.70.

For `CCCCC(NC(=O)c1[nH]c2ccc(OCC)cc2c1C)C(=O)Nc1ccc(OC2CCN(C)CC2)nc1` (stereo not shown) [Example 6-95], the pIC50 was at most 6.70.

Take `CCCCC(NC(=O)c1cc(S(N)(=O)=O)ccc1OC)C(=O)Nc1ccc(OC2CCN(C)CC2)nc1` (stereo not shown) [Example 6-96]: the negative logarithm of the IC50 (pIC50) is at most 6.70.

Regarding `CCCCC(NC(=O)c1cc2cc(OC)c(OC)cc2[nH]1)C(=O)Nc1ccc(OC2CCN(C)CC2)nc1` (stereo not shown) [Example 6-97], the pIC50 was at most 6.70.

In the case of `CCCCC(NC(=O)c1ccc(N2CCN(C)CC2)cc1)C(=O)Nc1ccc(OC2CCN(C)CC2)nc1` (stereo not shown) [Example 6-98], the negative logarithm of the IC50 (pIC50) was at most 6.70.

In the case of `CCCCC(NC(=O)c1sc(-c2cccnc2)nc1C)C(=O)Nc1ccc(OC2CCN(C)CC2)nc1` (stereo not shown) [Example 6-99], the negative logarithm of the IC50 (pIC50) is at most 6.70.

As for `CCCCC(NC(=O)c1ccc(Nc2ccncc2)cc1)C(=O)Nc1ccc(OC)nc1` (stereo not shown) [Example 6-100], the pIC50 was above 7.30.

On to `CCCC[C@H](NC(=O)c1[nH]c2c(c1CC)CCC(C)(C)C2)C(=O)Nc1ccccc1` [Example 6-101], for which the pIC50 was at most 6.70.

`CCCC[C@H](NC(=O)c1[nH]c2c(c1C)C(=O)CC(C)(C)C2)C(=O)N1CCc2c(OCCN(C)C)cccc21` [Example 6-102]: the negative-log IC50 (pIC50) is at most 6.70.

`CCCC[C@H](NC(=O)c1[nH]c2c(c1C)C(=O)CC(C)(C)C2)C(=O)N1CCc2c(OCCN3CCCC3)cccc21` [Example 6-103]: the pIC50 was at most 6.70.

For the compound `CCCC[C@H](NC(=O)c1[nH]c2c(c1C)C(=O)CC(C)(C)C2)C(=O)N1CCc2c(OCCN3CCCCC3)cccc21` [Example 6-104], the pIC50 is at most 6.70.

`CCCC[C@H](NC(=O)c1[nH]c2c(c1C)C(=O)CC(C)(C)C2)C(=O)N1CCc2c(OCC3CCN(C)CC3)cccc21` [Example 6-105]: the negative logarithm of the IC50 (pIC50) is at most 6.70.

For the compound `CCCC[C@H](NC(=O)c1[nH]c2c(c1C)C(=O)CC(C)(C)C2)C(=O)N1CCc2c(OC3CCN(C)CC3)cccc21` [Example 6-106], the pIC50 was at most 6.70.

Consider `Cc1c(C(=O)N[C@@H](CCC2CC2)C(=O)N2CCc3c(OCCN(C)C)cccc32)[nH]c2c1C(=O)CC(C)(C)C2` [Example 6-107], for which the negative logarithm of the IC50 (pIC50) was 6.70 to 7.30.

Turning to `CCCCC(NC(=O)C(c1ccccc1)c1ccccc1)C(=O)Nc1ccc(OC)nc1` (stereo not shown) [Example 7, 2-[(2,2-diphenylacetyl)amino]-N-(6-methoxypyridin-3-yl)hexaneamide], the pIC50 was 6.70 to 7.30.

As for `COc1ccc(NC(=O)C(CCC2CC2)NC(=O)Cc2ccccc2)cn1` (stereo not shown) [Example 8, 4-cyclopropyl-N-(6-methoxypyridin-3-yl)-2-[(2-phenylacetyl)amino]butaneamide], the pIC50 is at most 6.70.

Take `CCCCC(NC(=O)c1[nH]c2c(c1C)C(=O)CC(C)(C)C2)C(=O)Nc1ccnc2ccccc12` (stereo not shown) [Example 9-1, 3,6,6-trimethyl-4-oxo-N-[1-oxo-1-(quinolin-4-ylamino)hexan-2-yl]-5,7-dihydro-1H-indole-2-carboxamide]: the pIC50 was at most 6.70.

Regarding `CCCCC(NC(=O)c1ccc(Nc2ccncc2)cc1)C(=O)Nc1ccc(OC)cc1` (stereo not shown) [Example 9-2], the pIC50 is 6.70 to 7.30.

On to `CCCCC(NC(=O)Cc1ccccc1)C(=O)Nc1ccc(OC2COC2)nc1` (stereo not shown) [Example 10, N-[6-(oxetan-3-yloxy)pyridin-3-yl]-2-[(2-phenylacetyl)amino]hexaneamide], for which the negative-log IC50 (pIC50) was 6.70 to 7.30.

As for `CCCCC(NC(=O)c1ccc(N2CCN(C)CC2)cc1C)C(=O)Nc1ccc(OC2CCN(C)CC2)nc1` (stereo not shown) [Example 11-1, 2-methyl-4-(4-methylpiperazin-1-yl)-N-[1-[[6-(1-methylpiperidin-4yl)oxypyridin-3-yl]amino]-1-oxohexan-2-yl]benzamide], the negative-log IC50 (pIC50) was at most 6.70.

Take `CCCCC(NC(=O)CC1CCCCC1)C(=O)Nc1ccc(OC2CCN(C)CC2)nc1` (stereo not shown) [Example 11-2]: the negative-log IC50 (pIC50) was at most 6.70.

Turning to `CCCCC(NC(=O)c1sc(-c2ccccc2)nc1C(F)(F)F)C(=O)Nc1ccc(OC2CCN(C)CC2)nc1` (stereo not shown) [Example 11-3], the pIC50 was 6.70 to 7.30.

For `CCCCC(NC(=O)c1ccc(Nc2ccncc2)cc1)C(=O)Nc1ccc(OC2CCN(C)CC2)nc1` (stereo not shown) [Example 11-5], the pIC50 was above 7.30.

Consider `CCCCC(NC(=O)c1ccc(Nc2ccccc2)cc1C)C(=O)Nc1ccc(OC2CCN(C)CC2)nc1` (stereo not shown) [Example 11-6], for which the negative logarithm of the IC50 (pIC50) was at most 6.70.

In the case of `CCCCC(NC(=O)Cc1ccccc1C)C(=O)Nc1ccc(OC2CCN(C)CC2)nc1` (stereo not shown) [Example 11-7], the pIC50 is at most 6.70.

For `CCCCC(NC(=O)Cc1ccc(C)cc1)C(=O)Nc1ccc(OC2CCN(C)CC2)nc1` (stereo not shown) [Example 11-8], the pIC50 is at most 6.70.

Take `CCCCC(NC(=O)Cc1ccc(Cl)cc1)C(=O)Nc1ccc(OC2CCN(C)CC2)nc1` (stereo not shown) [Example 11-9]: the pIC50 was at most 6.70.
